Measured values as given in patent US20100152044A1, “Plant growth regulation” (Bayer CropScience GmbH, priority 2004, published 2010).

Key:
[1] = system: wheat (Triticum aestivum, variety TRISO); assay: Root growth assay, seed treatment, wheat; type: in vivo; conditions: Root Growth of 100 is set as the standard, wet root weight 16 (±2) days post treatment
Source text: (§1) Plant roots are a highly proliferative tissue that allows an easy accessible, cheap and short term screening method for plant growth regulators. The results obtained can easily be transferred to the overall effects on a plant of plant growth regulators identified by such a system. By using this root assay one is enabled to determine the effect of a seed treatment to root growth and/or germination and/or changes in habitat of germinated plants in order to identify the possible use as a yield enhancer. Two seeds of wheat (Triticum aestivum, variety “TRISO”) or 1 seed of maize (Zea mays, variety “LORENZO”) per hole in a plastic tray which contains an architecture of 8×13 holes were placed on compost soil covered with sand. These seeds were treated with 100 μl/hole, which creates an application volume of approx. 1200 l/ha, of a compound solution at active ingredient rates equivalent to 100, 10 and 1 g a.i./ha of each compound using an robotic application system (Lizzy Spray Robotics). Six replicates in a row of each compound and concentration were done. The outer rim of the above defined plastic tray was untreated to avoid false negative effects and the middle row (No. 7) was used as untreated control. The treated seeds were allowed to dry for approx. 4 hours and subsequently covered with sand and watered. The trays were stored in climate chambers with 14 hours lighting at a temperature of 24° C. (±2) at daytime and 16° C. (±2) at night and relative humidity (rH) of 60% and daily watered. Assessments were done 16 (±2) days post treatment by counting the germinated plants and assessing the phytotoxicity symptoms and percentage. In addition, the roots were washed out and the shoots were cut directly above the seed and the wet roots were placed on dry paper towels for approximately 30 minutes and weighted afterwards. This procedure provides a similar grade of moisture to the roots so that a comparison of the weights is possible.
(§2) The effects observed concerning Root Growth given in column 2 (Root Growth of “100” is set as the standard) are directed to concentrations that are equivalent to 100, 10, 1 g a.i./ha, each.

[2] = system: maize (Zea mays, variety LORENZO); assay: Root growth assay, seed treatment, maize; type: in vivo; conditions: Root Growth of 100 is set as the standard, wet root weight 16 (±2) days post treatment
Source text: as §1, §2

Structure (SMILES) | Root Growth ([1]; 1 g a.i./ha) | Root Growth ([1]; 10 g a.i./ha) | Root Growth ([1]; 100 g a.i./ha) | melting point [°C] | Root Growth ([2]; 1 g a.i./ha) | Root Growth ([2]; 10 g a.i./ha) | Root Growth ([2]; 100 g a.i./ha)
O=C1NC(=O)C(c2c[nH]c3ccccc23)=C1c1c[nH]c2ccccc12 [Compound 1, 3,4-Di-(1H-indol-3-yl)pyrrole-2,5-dione] | 69 | 129 | 133 | – | – | – | –
Cn1cc(C2=C(c3cn(CCCN)c4ccccc34)C(=O)NC2=O)c2ccccc21 [Compound 11] | 162 | 169 | 135 | – | – | – | –
Cn1cc(C2=C(c3c4n(c5ccccc35)CCC(CN)C4)C(=O)NC2=O)c2ccccc21 (stereo not drawn) [Compound 12] | 126 | 150 | 141 | – | – | – | –
O=C1NC(=O)C(c2cc(Cl)sc2Cl)=C1Nc1ccc(O)c(Cl)c1 [Compound 1.10] | 101 | 134 | 77 | – | – | – | –
O=C1NC(=O)C(c2ccccc2)=C1Nc1ccc(Cl)c(Cl)c1 [Compound 1.2, 3-(3,4-dichlorophenylamino)-4-phenylpyrrole-2,5-dione] | – | – | – | 242 | 130 | 117 | 141
O=C1NC(=O)C(c2ccccc2)=C1Nc1cccc(Cl)c1 [Compound 1.1, 3-(3-Chlorophenylamino)-4-phenylpyrrole-2,5-dione] | – | – | – | 187 | – | – | –
O=C1NC(=O)C(c2ccccc2)=C1Nc1ccc(OC(F)(F)F)cc1 [Compound 1.6, 3-Phenyl-4-(4-trifluoromethoxyphenylamino)pyrrole-2,5-dione] | – | – | – | 206 | – | – | –
Cc1ccc(NC2=C(c3ccc(Br)cc3)C(=O)NC2=O)cc1Cl [Compound 1.16] | 84 | 171 | 129 | – | 113 | 112 | 158
O=C1NC(=O)C(c2ccc(Cl)cc2)=C1Nc1ccc(O)c(C(=O)O)c1 [Compound 1.12] | – | – | – | – | 122 | 172 | 199
O=C1NC(=O)C(c2c(Cl)cccc2Cl)=C1Nc1cccc(Cl)c1 [Compound 1.20] | – | – | – | – | 142 | 114 | 125
O=C1NC(=O)C(c2ccccc2C(F)(F)F)=C1Nc1ccc(O)c(Cl)c1 [Compound 1.8] | – | – | – | – | 114 | 144 | 123
O=C1NC(=O)C(c2ccc(Cl)cc2)=C1Nc1ccc(C(=O)O)cc1 [Compound 1.19] | 148 | 183 | 91 | – | – | – | –
CN(C)CCCn1cc(C2=C(c3c[nH]c4ccccc34)C(=O)NC2=O)c2ccccc21 [Compound 8] | 122 | 150 | 123 | – | 109 | 150 | 93
